Experimental findings from patent publication US10750743B2, “Pyridazinone herbicides” (E.I. DU PONT DE NEMOURS AND COMPANY, priority 2015, dated 2020) are described below.

One series relates to rice (Oryza sativa). Briefly: Test B flooded paddy test, visual rating. The conditions noted are these: Oryza sativa, 360 h; Flood, 250 g ai/ha, applied to paddy water, rated after 13 to 15 d; read-out: Rice plant response rating (0 to 100 scale, 0 is no effect, 100 is complete control). The format is in vivo. In short, it runs like this:
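Plants grown to the 2-leaf stage. At treatment, pots were flooded to 3 cm above the soil, compound was applied directly to the paddy water, and that depth was held throughout. After 13 to 15 d in the greenhouse, response was rated visually against controls on a 0 (no effect) to 100 (complete control) scale.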

In general, melting point refers to the temperature of the solid-liquid transition. In the case of `Cc1cc2ccc(C)c(-c3c(O)c(C)nn(C)c3=O)c2o1` [Compound 10, 4-(2,6-dimethyl-7-benzofuranyl)-5-hydroxy-2,6-dimethyl-3(2H)-pyridazinone], the melting point fell in the range of 194 to 199 °C. Moreover, the plant injury at 250 g/ha in the series with rice (Oryza sativa) was found to be 0%.

Take `CC(=O)Oc1c(C)nn(C)c(=O)c1-c1c(C)ccc2cc(C)oc12` [Compound 11, 5-(acetyloxy)-4-(2,6-dimethyl-7-benzofuranyl)-2,6-dimethyl-3(2H)-pyridazinone]: the melting point lay in the range of 93 to 96 °C. The plant injury at 250 g/ha in the series with rice (Oryza sativa) came out at 0%.

As for `Cc1cc2cccc(-c3c(O)c(C)nn(C)c3=O)c2o1` [Compound 12, 5-hydroxy-2,6-dimethyl-4-(2-methyl-7-benzofuranyl)-3(2H)-pyridazinone], the plant injury at 250 g/ha with rice (Oryza sativa) came out at 0%.

Take `Cc1nn(C)c(=O)c(-c2cccc3snc(C)c23)c1O` [Compound 25, 5-hydroxy-2,6-dimethyl-4-(3-methyl-1,2-benzisothiazol-4-yl)-3 (2H)-pyridazinone]: the melting point fell in the range of 115 to 118 °C. In the series on rice (Oryza sativa), the plant injury at 250 g/ha stood at 0%.

As to `Cc1ccc2sccc2c1-c1c(O)c(C)nn(C)c1=O` [Compound 29, 5-hydroxy-2,6-dimethyl-4-(5-methylbenzo[b]thien-4-yl)-3(2H)-pyridazinone], the plant injury at 250 g/ha with rice (Oryza sativa) was 0%.

`CCOC(=O)Oc1c(C)nn(C)c(=O)c1-c1c(C)ccc2sccc12` [Compound 30, 1,6-dihydro-1,3-dimethyl-5-(5-methylbenzo[b]thien-4-yl)-6-oxo-4-pyridazinyl ethyl carbonate] came in with a melting point of 103 to 107 °C. For the same compound, in the series on rice (Oryza sativa), the plant injury at 250 g/ha was determined as 0%.

In the case of `Cn1nc(Cl)c(O)c(-c2nccc3ccccc23)c1=O` [Compound 67, 6-chloro-5-hydroxy-4-(1-isoquinolinyl)-2-methyl-3(2H)-pyridazinone], the plant injury at 250 g/ha in the series on rice (Oryza sativa) stood at 0%.

For the compound `Cc1nn(C)c(=O)c(-c2ccc(F)c3ccoc23)c1O` [Compound 68, 4-(4-fluoro-7-benzofuranyl)-5-hydroxy-2,6-dimethyl-3(2H)-pyridazinone], in the series on rice (Oryza sativa), the plant injury at 250 g/ha worked out at 0%.

In the case of `COc1c(C)nn(C)c(=O)c1-c1ccc(F)c2ccoc12` [Compound 69, 4-(4-fluoro-7-benzofuranyl)-5-methoxy-2,6-dimethyl-3(2H)-pyridazinone], in the series with rice (Oryza sativa), the plant injury at 250 g/ha was 0%.
